Experimental data reported in patent publication US9988380B2, “Quorum sensing inhibitors” (priority 2013, dated 2018).

What was measured:
rhlA-gfp(ASV) expression = assay: Inhibition of the Rhl QS system, rhlA-gfp(ASV) reporter in PAO1 wild-type and lasR mutant; type: cell-based, P. aeruginosa
Protocol: (§1) Inhibition of the Rhl and PQS QS systems in wild-type PAO1 and PAO1 lasR mutant. Wild-type P. aeruginosa PAO1 strains harboring either the rhlA-gfp(ASV) reporter or the pqsA-gfp(ASV) reporter, and a P. aeruginosa PAO1 lasR mutant harboring either the rhlA-gfp(ASV) reporter or the pqsA-gfp(ASV) reporter were used for this experiment (Refer to FIG. 11 for strain information). Overnight cultures of these four strains were diluted 100-fold in ABTGC media within 96-well microtitre plates to a final volume of 200 μL per well. Each of the five QSIs was added in triplicate to a final concentration of 50 μM. 0.5% DMSO was used as a negative control. The microtitre plate was incubated at 37° C. in a Tecan Infinite 200 Pro plate reader where GFP and OD600 readings were measured at 15 min intervals.
(§2) Effect of QSIs on Rhl and Pqs Quorum-Sensing Systems. In order to address the problem of the specificity of present compounds, the five identified QSI compounds were tested to see if they had any effect on the rhl and pqs systems. The five QSIs were tested against a PAO1 wild-type and a PAO1 lasR mutant harboring either the rhlA-gfp (ASV) bioreporter or the pqsA-gfp (ASV) bioreporter. The rhlA system is dependent on the RhlR/I system. By doing so, we were able to determine if a QSI is able to inhibit the other two QS systems (i.e. rhl and pqs) in a lasR-dependent/independent manner (FIG. 8).

pqsA-gfp(ASV) expression = assay: Inhibition of the PQS QS system, pqsA-gfp(ASV) reporter in PAO1 wild-type and lasR mutant; type: cell-based, P. aeruginosa
Protocol: as §1, §2

[1] = tested on: P. aeruginosa PAO1 strain; assay: iTRAQ-based quantitative proteomic analysis; type: cell-based; conditions: 25 μM G1
Protocol: iTRAQ-Based Proteomics Analyses for G1. Isobaric tag for relative and absolute quantitation (iTRAQ)-based proteomic analysis was used to study the changes in protein expression of the P. aeruginosa PAO1 strain in response to the addition of 25 μM of G1. Proteomics experiments were performed at the Proteomic Core Facility of the Biological Research Center, School of Biological Sciences, Nanyang Technological University, Singapore. A full description of the proteomics workflow is given below.
Protein preparation and digestion. The P. aeruginosa PAO1 strain was grown in ABTG media. Sub-lethal concentrations of G1 (25 μM) were added to independent P. aeruginosa PAO1 cultures respectively. Cultures were grown in LB medium at 37° C. with shaking until late log phase (OD 600 nm=1.0) before harvesting. After harvesting, cell pellets were washed with 1×PBS and resuspended in 2 ml of lysis buffer containing 0.5M TEAB and 0.1M SDS. The cells were ruptured by sonication, and the cell debris was removed by centrifugation at 4° C. at 16000×g for 15 min. 200 μg of proteins from different growth conditions were dissolved in equal volume of sample buffer (Invitrogen) supplemented with 0.5% 2-mercaptoethanol and denatured by boiling at 95° C. for 5 min. 1D gel electrophoresis was carried out using 10% SDS-PAGE for in-gel digestion.
Proteins were first reduced using 5 mM Tris-(2-carboxyethyl)phosphine (TCEP) for 1 h at 60° C., followed by blocking of cysteine residues by 10 mM methyl methanethiosulfate (MMTS) for 30 min at room temperature in the dark. Trypsin was added at a ratio of 1:50 (trypsin/sample). It was then incubated at 37° C. overnight. The tryptic peptides were extracted by 50% ACN/5% Acetic Acid from gel for 3 times and were desalted using Sep-Pak C18 cartridges (Waters, Milford, Mass.) and dried in a SpeedVac (Thermo Electron, Waltham, Mass.). All chemicals were purchased from Sigma-Aldrich unless stated otherwise.
iTRAQ labeling. The iTRAQ labeling of the tryptic peptides was performed using 4-plex iTRAQ reagent kit (Applied Biosystems, Foster City, Calif.), according to the manufacturers protocol. 200 μg of peptides from each condition were individually labeled with respective isobaric tags: control sample with 114, and the G1 treated sample with 115. After 2 h incubation, the samples were quenched by water, desalted using C18 solid phase extraction cartridge, and then vacuum-centrifuged to dryness. […] The HPLC chromatograms were recorded at 280 nm and fractions were collected online using automated fraction collector. 20 fractions were collected and concentrated using vacuum centrifuge and reconstituted in 3% ACN with 0.1% formic acid for LC-MS/MS analysis.
LC-MS/MS. The peptides were separated and analyzed on a home-packed nanobore C18 column (15 cm×75 μm; Reprosil-Pur C18-AQ, 3 μm, Dr Maisch, Germany) with a Picofritnanospray tip (New Objectives, Woburn, Mass., USA) on a Tempo™ nano-MDLC system coupled with a QSTAR® Elite Hybrid LC-MS/MS system (Applied Biosystems). Peptides from each fraction were analyzed in triplicate by LC-MS/MS over a gradient of 90 min. The flow rate of the LC system was set to a constant 300 nl/min. Data acquisition in QSTAR Elite was set to positive ion mode using Analyst® QS 2.0 software (Applied Biosystems). MS data was acquired in positive ion mode with a mass range of 300-1600 m/z. Peptides with +2 to +4 charge states were selected for MS/MS. For each MS spectrum, the three most abundant peptides above a five-count threshold were selected for MS/MS and dynamically excluded for 30 s with a mass tolerance of 0.03 Da. Smart information-dependent acquisition was activated with automatic collision energy and automatic MS/MS accumulation. The fragment intensity multiplier was set to 20 and maximum accumulation time was 2 s.
Data analysis. […]

**Q.** With `N=c1[nH]c(=O)c2nn[nH]c2[nH]1` [Compound G1, 5-imino-4,6-dihydro-3H-1,2,3-triazolo[5,4-d]pyrimidin-7-one] as the molecule, how does the “inhibition of rhlA-gfp expression” value (rhlA-gfp(ASV) expression; PAO1 lasR mutant, 50 μM QSI) read?
**A.** Its value is 46.5%.

**Q.** And the “induction of the rhl QS system” value (rhlA-gfp(ASV) expression; data not shown)?
**A.** The value was “delay the induction of the rhl QS system”.

**Q.** What about the “inhibition of rhlA-gfp expression” value (rhlA-gfp(ASV) expression; wild-type PAO1, 50 μM QSI) of the same molecule?
**A.** The value was 23.1%.

**Q.** And the “inhibition of pqsA-gfp expression” value (pqsA-gfp(ASV) expression; PAO1 lasR mutant, 50 μM QSI)?
**A.** Its value is 24.4%.

**Q.** What about the “inhibition of pqsA-gfp expression” value (pqsA-gfp(ASV) expression; wild-type PAO1, 50 μM QSI) of the same molecule?
**A.** The value was 57.5%.

**Q.** What about the “abundance of protease IV (PA4175), 115:114” value [1] of the same molecule?
**A.** Its value is 0.29.

**Q.** What about the “change in abundance of pyoverdine chromophore synthetase (pvdL; PA2424)” value [1] of the same molecule?
**A.** The value was −0.73 fold.

**Q.** And the “change in abundance of pyoverdine synthetase D (pvdD; PA2399)” value [1]?
**A.** The value was −0.89 fold.

**Q.** What about the “elastase (lasB; PA3724) in the proteomics result” value [1] of the same molecule?
**A.** Its value is “not identified as down-regulated”.

**Q.** And the “number of proteins with abundance upregulated” value ([1]; 115:114 score at least 1.5)?
**A.** Its value is 19.

**Q.** And the “number of proteins with abundance down-regulated” value ([1]; 115:114 score below 0.66)?
**A.** The value was 27.

**Q.** What about the “number of proteins significantly affected” value ([1]; p-value (115:114) cut-off 0.05) of the same molecule?
**A.** Its value is 46.
